Results on 22 compounds are retold here after patent publication US10301306B2, “Substituted dihydro-1H-pyrrolo[3,2-c]pyridin-4(5H)-ones as RIPK3 inhibitors” (BRISTOL-MYERS SQUIBB COMPANY, priority 2014, dated 2019).

The structures appear in SMILES notation.

Chain of RIPK3 (Q9Y572 whole entry, species assumed): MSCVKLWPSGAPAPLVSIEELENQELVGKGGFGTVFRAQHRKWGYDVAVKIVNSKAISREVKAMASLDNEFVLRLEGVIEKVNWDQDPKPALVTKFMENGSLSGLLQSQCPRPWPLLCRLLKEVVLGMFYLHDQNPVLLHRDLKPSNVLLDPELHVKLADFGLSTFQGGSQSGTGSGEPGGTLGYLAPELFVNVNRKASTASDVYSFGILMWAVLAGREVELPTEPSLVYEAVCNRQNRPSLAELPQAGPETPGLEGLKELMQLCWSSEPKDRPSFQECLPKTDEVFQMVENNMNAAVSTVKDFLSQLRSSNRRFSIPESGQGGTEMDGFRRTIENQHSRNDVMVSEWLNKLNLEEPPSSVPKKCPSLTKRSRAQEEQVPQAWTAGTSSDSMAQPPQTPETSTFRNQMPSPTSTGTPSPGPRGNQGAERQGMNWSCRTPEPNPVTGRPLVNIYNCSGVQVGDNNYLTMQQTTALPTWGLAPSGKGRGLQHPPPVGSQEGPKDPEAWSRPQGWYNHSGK

This experiment has as its target RIPK3 (Homo sapiens (Human), UniProt Q9Y572). Nature of the experiment: RIPK3 HTRF Kinase Assay. The note with it: RIPK3 1 nM; HTRF probe 23 nM; 60 min at room temperature; read-out: IC50 for Inhibition of RIPK3. Format: binding. (In TR-FRET formats the signal depends on donor and acceptor labels being close together.)
With `N#Cc1cc(F)ccc1Cn1c2c(c(-c3ccc(Cl)s3)c1-c1ccncc1)C(=O)NCC2` [Example 130], the IC50 (usually the concentration needed to halve the response being measured) is under 30 nM.

Turning to `COc1ccncc1-c1c2c(n(Cc3ccc(F)cc3C#N)c1-c1ccncc1)CCNC2=O` [Example 131], the IC50 lay in the range of 100 to 15000 nM.

`N#Cc1cc(F)ccc1Cn1c2c(c(-c3cncc4ccccc34)c1-c1ccncc1)C(=O)NCC2` [Example 132]: the IC50 fell in the range of 100 to 15000 nM.

For `N#Cc1cc(F)ccc1Cn1c2c(c(-c3cccc(S(N)(=O)=O)c3)c1-c1ccncc1)C(=O)NCC2` [Example 133], the IC50 was 100 to 15000 nM.

Consider `N#Cc1cc(F)ccc1Cn1c2c(c(-c3cccc(CO)c3)c1-c1ccncc1)C(=O)NCC2` [Example 134], for which the IC50 is under 30 nM.

As for `N#Cc1cc(F)ccc1Cn1c2c(c(-c3ccc(OCc4ccccc4)cc3)c1-c1ccncc1)C(=O)NCC2` [Example 135], the IC50 lay in the range of 100 to 15000 nM.

For `N#Cc1cc(F)ccc1Cn1c2c(c(-c3ccc(Cl)c(Cl)c3)c1-c1ccncc1)C(=O)NCC2` [Example 136], the IC50 was under 30 nM.

With `N#Cc1cc(F)ccc1Cn1c2c(c(-c3cc(Cl)cc(Cl)c3)c1-c1ccncc1)C(=O)NCC2` [Example 138], the IC50 is under 30 nM.

Regarding `N#Cc1cccc(-c2c3c(n(Cc4ccc(F)cc4C#N)c2-c2ccncc2)CCNC3=O)c1` [Example 139], the IC50 is 31 to 100 nM.

Take `COc1cc(-c2c3c(n(Cc4ccc(F)cc4C#N)c2-c2ccncc2)CCNC3=O)ccn1` [Example 140]: the IC50 is under 30 nM.

For the compound `N#Cc1cc(F)ccc1Cn1c2c(c(-c3ccoc3)c1-c1ccncc1)C(=O)NCC2` [Example 141], the IC50 was under 30 nM.

As for `Cc1csc(-c2c3c(n(Cc4ccc(F)cc4C#N)c2-c2ccncc2)CCNC3=O)c1` [Example 142], the IC50 was under 30 nM.

With `Cc1cscc1-c1c2c(n(Cc3ccc(F)cc3C#N)c1-c1ccncc1)CCNC2=O` [Example 143], the IC50 fell in the range of 100 to 15000 nM.

On to `N#Cc1cc(F)ccc1Cn1c2c(c(/C=C/c3ccccc3)c1-c1ccncc1)C(=O)NCC2` [Example 145], for which the IC50 is 31 to 100 nM.

For the compound `O=C1NCCc2c1c(-c1ccc(F)cc1)c(-c1ccnc(NCCO)c1)n2Cc1ccc(C(F)(F)F)cc1F` [Example 146], the IC50 was in the range of 31 to 100 nM.

Consider `COCCNc1cc(-c2c(-c3ccc(F)cc3)c3c(n2Cc2ccc(C(F)(F)F)cc2F)CCNC3=O)ccn1` [Example 147], for which the IC50 was in the range of 100 to 15000 nM.

As for `CCC(=O)Nc1cc(-c2c(-c3ccc(F)cc3)c3c(n2Cc2ccc(C(F)(F)F)cc2F)CCNC3=O)ccn1` [Example 149], the IC50 was 31 to 100 nM.

As for `COCC(=O)Nc1cc(-c2c(-c3ccc(F)cc3)c3c(n2Cc2ccc(C(F)(F)F)cc2F)CCNC3=O)ccn1` [Example 150], the IC50 is 31 to 100 nM.

In the case of `CC1(C)CNC(=O)c2c(-c3ccc(F)cc3)c(-c3ccncc3)n(CC3CCOCC3)c21` [Example 152, 3-(4-Fluorophenyl)-7,7-dimethyl-2-(pyridin-4-yl)-1-((tetrahydro-2H-pyran-4-yl)methyl)-6,7-dihydro-1H-pyrrolo[3,2-c]pyridin-4(5H)-one], the concentration for half-maximal inhibition (IC50) fell in the range of 100 to 15000 nM.

For the compound `CC1(C)CNC(=O)c2c1[nH]c(-c1ccncc1)c2-c1ccc(F)cc1` [Example 153, 3-(4-Fluorophenyl)-7,7-dimethyl-2-(pyridin-4-yl)-6,7-dihydro-1H-pyrrolo[3,2-c]pyridin-4(5H)-one], the IC50 is under 30 nM.

Turning to `Cn1c(-c2ccncc2)c(-c2ccc(F)cc2)c2c1C(C)(C)CNC2=O` [Example 154, 3-(4-Fluorophenyl)-1,7,7-trimethyl-2-(pyridin-4-yl)-6,7-dihydro-1H-pyrrolo[3,2-c]pyridin-4(5H)-one], the 50% inhibitory concentration (IC50) fell in the range of 100 to 15000 nM.

On to `O=c1[nH]ccc2c1c(-c1ccc(F)cc1)c(-c1ccnc(Cl)c1)n2Cc1ccc(C(F)(F)F)cc1F` [Example 155, 2-(2-Chloropyridin-4-yl)-1-(2-fluoro-4-(trifluoromethyl)benzyl)-3-(4-fluorophenyl)-1H-pyrrolo[3,2-c]pyridin-4(5H)-one], for which the IC50 lay within 100 to 15000 nM.
